Test [1] deals with T1, hM3 (human Muscarinic receptor subtype 3) (Homo sapiens, UniProt P20309).
T1 construct: expressed in transfected cells; host or cells: CHO cells (Chinese hamster ovary cells, ATCC)
The test is described as follows: Human M3 calcium mobilization FLIPR assay. In kind it is cell-based. Particulars: CHO cells expressing hM3, intracellular Ca2+ release. Here is the method: (§1) The compound activity in the present invention (EC50 or IC50) is measured using a 384 plate-based imaging assay that monitors drug induced intracellular Ca^2+ release in whole cells. Activation of hM1 (human Muscarinic receptor subtype 1, gene bank access NM_000738), rM1 (rat Muscarinic receptor subtype 1, gene bank access NM_080773), hM3 (human Muscarinic receptor subtype 3, gene bank access NM_000740NM_000740) and hM5 (human Muscarinic receptor subtype 5, gene bank access NM_0121258), receptors expressed in CHO cells (Chinese hamster ovary cells, ATCC) is quantified in a Molecular Devices FLIPR II™ instrument as an increase in fluorescent signal. Inhibition of hM3 and hM5 by compounds is determined by the decrease in fluorescent signal in response to 2 nM acetylcholine activation.
(§2) Prior to experiment, the cell culture medium is removed from the plates by inversion. […] Plates are incubated at 37° C. for 60 minutes prior to start the experiment. The incubation is terminated by washing the cells four times in assay buffer, leaving a residual 25 μl buffer per well. Cell plates are then transferred to the FLIPR, ready for compound additions.
(§3) The day of experiment, acetylcholine and compounds are diluted in assay buffer in three-fold concentration range (10 points serial dilution) for addition by FLIPR instrument. For all calcium assays, a baseline reading is taken for 10 seconds followed by the addition of 12.5 μl of compounds, resulting in a total well volume of 37.5 μl. Data is collected every second for 60 pictures and then every 6 seconds for 20 pictures prior to the addition of agonist. For hM3 and hM5, before agonist addition, a second baseline reading is taken for 10 seconds followed by the addition of 12.5 μl of agonist or buffer, producing a final volume of 50 μl. After agonist stimulation, the FLIPR continues to collect data every second for 60 pictures and then every 6 seconds for 20 pictures. The fluorescence emission is read using filter 1 (emission 510-570 nm) by the FLIPR on board CCD camera.
(§4) Calcium mobilization output data are calculated as the maximal relative fluorescence unit (RFU) minus the minimal value for both compound and agonist reading frame (except for hM1 and rM1 using only the maximal RFU). Data are analyzed using sigmoidal fits of a non-linear curve-fitting program (XLfit version 4.2.2 Excel add-in version 4.2.2 build 18 math 1Q version 2.1.2 build 18). All pEC50 and pIC50 values are reported as arithmetic means±standard error of mean of ‘n’ independent experiments.

Test [2] concerns the target T2, hM1 (human Muscarinic receptor subtype 1) (Homo sapiens, UniProt P11229).
T2 construct: expressed in transfected cells; host or cells: CHO cells (Chinese hamster ovary cells, ATCC)
T2 sequence (P11229 1-460): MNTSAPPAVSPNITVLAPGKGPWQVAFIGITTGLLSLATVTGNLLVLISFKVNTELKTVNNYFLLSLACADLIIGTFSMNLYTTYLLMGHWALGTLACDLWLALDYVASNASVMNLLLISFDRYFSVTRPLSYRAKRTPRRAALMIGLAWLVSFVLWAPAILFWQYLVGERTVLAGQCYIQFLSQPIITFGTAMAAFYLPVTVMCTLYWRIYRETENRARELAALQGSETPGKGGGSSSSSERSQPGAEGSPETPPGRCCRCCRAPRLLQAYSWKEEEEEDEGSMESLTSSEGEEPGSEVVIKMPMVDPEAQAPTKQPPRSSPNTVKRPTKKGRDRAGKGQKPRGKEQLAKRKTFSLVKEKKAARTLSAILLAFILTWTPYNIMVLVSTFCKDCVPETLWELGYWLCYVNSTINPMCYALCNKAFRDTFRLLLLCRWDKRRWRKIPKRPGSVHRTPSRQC
The test is described as follows: Human M1 calcium mobilization FLIPR assay. In kind it is cell-based. Conditions: CHO cells expressing hM1, intracellular Ca2+ release. As for the experimental part:
as §1, §2, §3, §4
(Calcium flux is commonly read through the fluorescence of an indicator in the cells.)

The target of a further test is T3, cloned human M4 receptor (Homo sapiens, UniProt P08173).
T3 construct: purchased Perkin-Elmer RBHM4M; host or cells: CHO cell membranes
T3 sequence (P08173 1-479): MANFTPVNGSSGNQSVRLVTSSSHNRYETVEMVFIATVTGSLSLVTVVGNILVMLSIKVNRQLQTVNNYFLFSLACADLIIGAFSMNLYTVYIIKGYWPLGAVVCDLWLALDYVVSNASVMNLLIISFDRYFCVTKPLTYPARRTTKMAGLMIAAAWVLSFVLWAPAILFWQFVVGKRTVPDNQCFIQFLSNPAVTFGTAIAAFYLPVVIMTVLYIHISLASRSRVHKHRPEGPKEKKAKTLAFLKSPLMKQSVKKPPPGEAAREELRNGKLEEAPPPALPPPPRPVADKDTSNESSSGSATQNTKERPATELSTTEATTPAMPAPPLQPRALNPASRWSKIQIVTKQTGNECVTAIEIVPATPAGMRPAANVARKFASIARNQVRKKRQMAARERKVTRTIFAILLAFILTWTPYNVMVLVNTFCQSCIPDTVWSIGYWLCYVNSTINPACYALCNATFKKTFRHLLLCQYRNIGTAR
The test is described as follows: hM4 receptor GTPγS binding. Particulars: CHO membranes expressing hM4, [35S]GTPγS binding. In kind it is biochemical. As for the experimental part:
Membranes produced from Chinese hamster ovary cells (CHO) expressing the cloned human M4 receptor (human Muscarinic receptor subtype 4, gene bank access NM_000741), are obtained from Perkin-Elmer (RBHM4M). The membranes are thawed at 37° C., passed 3 times through a 23-gauge blunt-end needle, diluted in the GTPγS binding buffer (50 mM Hepes, 20 mM NaOH, 100 mM NaCl, 1 mM EDTA, 5 mM MgCl2, pH 7.4, 100 μM DTT). The EC50, IC50 and Emax of the compounds of the invention are evaluated from 10-point dose-response curves (three fold concentration range) done in 60 μl in 384-well non-specific binding surface plate (Corning). Ten microliters from the dose-response curves plate (5× concentration) are transferred to another 384 well plate containing 25 μl of the following: 10 μg of hM4 membranes, 500 μg of Flashblue beads (Perkin-Elmer) and GDP 40 μM. An additional 15 μl containing 3.3× (60,000 dpm) of GTPγ^35S (0.4 nM final) are added to the wells resulting in a total well volume of 50 μl. Basal and maximal stimulated [^35S]GTPγS binding are determined in absence and presence of 30 μM final of acetylcholine agonist. The membranes/beads mix are pre-incubated for 15 minutes at room temperature with 40 μM GDP prior to distribution in plates (20 μM final). The reversal of acetylcholine-induced stimulation (10 μM final) of [^35S]GTPγS binding is used to assay the antagonist properties (IC50) of the compounds. The plates are incubated for 60 minutes at room temperature then centrifuged at 400 rpm for 5 minutes. The radioactivity (cpm) is counted in a Trilux (Perkin-Elmer).
Values of EC50, IC50 and Emax are obtained using sigmoidal fits of a non-linear curve-fitting program (XLfit version 4.2.2 Excel add-in version 4.2.2 build 18 math 1Q version 2.1.2 build 18) of percent stimulated [^35S]GTPγS binding vs. log(molar ligand). All pEC50 and pIC50 values are reported as arithmetic means±standard error of mean of ‘n’ independent experiments.
For orientation: Binding of GTPγS marks nucleotide exchange on a G protein.

pEC50: −log10 of the molar value.

T1 sequence (P20309 whole entry): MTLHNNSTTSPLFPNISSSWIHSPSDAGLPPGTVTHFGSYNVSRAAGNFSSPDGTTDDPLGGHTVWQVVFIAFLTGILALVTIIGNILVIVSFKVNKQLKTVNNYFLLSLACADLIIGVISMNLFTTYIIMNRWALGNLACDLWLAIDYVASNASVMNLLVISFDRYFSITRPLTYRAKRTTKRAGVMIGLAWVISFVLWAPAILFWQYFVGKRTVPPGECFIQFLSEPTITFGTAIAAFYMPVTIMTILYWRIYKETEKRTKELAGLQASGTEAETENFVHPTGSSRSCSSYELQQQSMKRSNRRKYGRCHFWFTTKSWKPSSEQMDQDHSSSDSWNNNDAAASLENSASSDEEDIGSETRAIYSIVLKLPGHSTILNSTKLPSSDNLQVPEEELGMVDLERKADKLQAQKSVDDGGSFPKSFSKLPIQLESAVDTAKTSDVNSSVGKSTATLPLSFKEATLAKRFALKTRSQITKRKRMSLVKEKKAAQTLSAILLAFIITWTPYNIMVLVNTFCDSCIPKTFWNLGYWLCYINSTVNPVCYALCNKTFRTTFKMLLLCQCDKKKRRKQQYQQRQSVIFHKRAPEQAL

Regarding `CC1(N2CCC(N3C(=O)N[C@H]4CCCC[C@@H]43)CC2)CCN(C(=O)C2CC2)CC1` [Example 03, (3aS,7aS)-1-[1-[1-(cyclopropanecarbonyl)-4-methyl-4-piperidyl]-4-piperidyl]-3a,4,5,6,7,7a-hexahydro-3H-benzoimidazol-2-one], the pEC50 – broadly, the negative decadic logarithm of the EC50, by convention in mol/L – in test [1] is less than 4.40; in test [2] it was greater than 8.15; at cloned human M4 receptor, less than 5.19.
Regarding `CCOC(=O)N1CCC(C)(N2CCC(N3C(=O)N[C@@H]4CCCC[C@H]43)CC2)CC1` [Example 04, Ethyl 4-[4-[(3aR,7aR)-2-oxo-3a,4,5,6,7,7a-hexahydro-3H-benzoimidazol-1-yl]-1-piperidyl]-4-methyl-piperidine-1-carboxylate], the pEC50 in test [1] is less than 5.38; in test [2], 8.48; at cloned human M4 receptor, less than 5.21.
For `CC(C)OC(=O)N1CCC(C)(N2CCC(N3C(=O)N[C@@H]4CCCC[C@H]43)CC2)CC1` [Example 05, Propan-2-yl 4-[4-[(3aR,7aR)-2-oxo-3a,4,5,6,7,7a-hexahydro-3H-benzoimidazol-1-yl]-1-piperidyl]-4-methyl-piperidine-1-carboxylate], the figures for the pEC50 (in test [1]; in test [2]; at cloned human M4 receptor) were less than 4.31, 7.60 and less than 4.52, respectively.
For `CC1(N2CCC(N3C(=O)N[C@@H]4CCCC[C@H]43)CC2)CCN(C(=O)C2CC2)CC1` [Example 06, (3aR,7aR)-1-[1-[1-(cyclopropanecarbonyl)-4-methyl-4-piperidyl]-4-piperidyl]-3a,4,5,6,7,7a-hexahydro-3H-benzoimidazol-2-one], in that order: less than 4.31, 7.29 and less than 4.52.
As for `CC(C)OC(=O)N1CCC(C)(N2CCC(N3C(=O)C[C@H]4CCCC[C@@H]43)CC2)CC1` [Example 14, Propan-2-yl 4-[4-[(3aR,7aS)-2-oxo-3a,4,5,6,7,7a-hexahydro-3H-indol-1-yl]-1-piperidyl]-4-methyl-piperidine-1-carboxylate], the pEC50 in test [1] is less than 4.40; in test [2], 7.72; at cloned human M4 receptor it was less than 4.52.
Regarding `CC1(N2CCC(N3C(=O)C[C@H]4CCCC[C@@H]43)CC2)CCN(C(=O)C2CC2)CC1` [Example 15, (3aR,7aS)-1-[1-[1-(cyclopropanecarbonyl)-4-methyl-4-piperidyl]-4-piperidyl]-3a,4,5,6,7,7a-hexahydro-3H-indol-2-one], the pEC50 in test [1] is less than 4.40; in test [2], 7.44; at cloned human M4 receptor it was less than 4.52.
On to `CC#CCOC(=O)N1CCC(C)(N2CCC(N3C(=O)N[C@H]4CCCC[C@@H]43)CC2)CC1` [Example 16, But-2-ynyl 4-[4-[(3aS,7aS)-2-oxo-3a,4,5,6,7,7a-hexahydro-3H-benzimidazol-1-yl]-1-piperidyl]-4-methyl-piperidine-1-carboxylate], for which the figures for the pEC50 (in test [1]; in test [2]; on cloned human M4 receptor) were less than 4.40, 8.44 and less than 4.05, respectively.
The corresponding values for `CCC(=O)N1CCC(C)(N2CCC(N3C(=O)N[C@H]4CCCC[C@@H]43)CC2)CC1` [Example 18, (3aS,7aS)-3-[1-(4-methyl-1-propanoyl-4-piperidyl)-4-piperidyl]-3a,4,5,6,7,7a-hexahydro-1H-benzimidazol-2-one] are less than 4.40, 7.18 and less than 4.52.
